One series deals with human PBM cells. Briefly: in vitro. The series is classed as cell-based. As to the method: The compounds were evaluated for their potential toxic effects on uninfected PHA-stimulated human PBM cells, in CEM (T-lymphoblastoid cell line obtained from American Type Culture Collection, Rockville, Md.) and Vero (African green monkey kidney) cells. PBM cells were obtained from whole blood of healthy seronegative donors (HIV-1 and hepatitis B virus) by single-step Ficoll-Hypaque discontinous gradient centrifugation. […] All of the cells were plated in 96-well cell culture plates containing ten-fold serial dilutions of the test drug. […] At the end of incubation, MTT tetrazolium dye solution (Cell titer 96®, Promega, Madison, Wis.) was added to each well and incubated overnight. The reaction was stopped with stop solubilization solution (Promega, Madison, Wis.). The plates were incubated for 5 hours to ensure that the formazan crystals were dissolved. The plates were read at a wavelength of 570 nm using an ELISA plate reader (Bio-tek instruments, Inc., Winooski, Vt., Model # EL 312e). […] Bookmark not defined.

The subject of series [1] is CEM (T-lymphoblastoid cell line). The series is classed as cell-based. The method, then: (§1) The compounds were evaluated for their potential toxic effects on uninfected PHA-stimulated human PBM cells, in CEM (T-lymphoblastoid cell line obtained from American Type Culture Collection, Rockville, Md.) and Vero (African green monkey kidney) cells. PBM cells were obtained from whole blood of healthy seronegative donors (HIV-1 and hepatitis B virus) by single-step Ficoll-Hypaque discontinous gradient centrifugation. Log phase Vero, CEM and PHA-stimulated human PBM cells were seeded at a density of 5×10^3, 2.5×10^3 and 5×10^4 cells/well respectively. All of the cells were plated in 96-well cell culture plates containing ten-fold serial dilutions of the test drug. The cultures were incubated for 3, 4 and 5 days for Vero, CEM, and PBM cells, respectively in a humidified 5% CO2-air at 37° C. At the end of incubation, MTT tetrazolium dye solution (Cell titer 96®, Promega, Madison, Wis.) was added to each well and incubated overnight. The reaction was stopped with stop solubilization solution (Promega, Madison, Wis.). The plates were incubated for 5 hours to ensure that the formazan crystals were dissolved. The plates were read at a wavelength of 570 nm using an ELISA plate reader (Bio-tek instruments, Inc., Winooski, Vt., Model # EL 312e). […] Bookmark not defined.

The subject of series [2] is Vero (African green monkey kidney) cells. As to the kind of experiment: in vitro. It is filed as cell-based. As to the method:
as §1

A further series relates to HIV-1LAI. As to the kind of experiment: HIV assay in human PBM cells (RT activity of supernatant). It is filed as cell-based. Conditions: 5 days, read-out: Anti-HIV-1 Activity (EC50). An excerpt:
Human peripheral blood mononuclear (PBM) cells (obtained from Atlanta Red Cross) were isolated by Ficoll-Hypaque discontinuous gradient centrifugation from healthy seronegative donors. Cells were stimulated with phytohemagglutinin A (Difco, Sparks, Md.) for 2-3 days prior to use. HIV-1LAI obtained from the Centers for Disease Control and Prevention (Atlanta, Ga.) was used as the standard reference virus for the antiviral assays. The molecular infetious clones HIV-1xxBru and HIV-1M184Vpin were obtained from Dr. John Mellors (University of Pittsburgh). Infections were done in bulk for one hour, either with 100 TCID50/1×10^7 cells for a flask (T25) assay or with 200 TCID50/6×10^5 cells/well for a 24 well plate assay. Cells were added to a plate or flask containing a ten-fold serial dilution of the test compound. Assay medium was RPMI-1640 supplemented with heat inactivated 16% fetal bovine serum, 1.6 mM L-glutamine, 80 IU/ml penicillin, 80 μg/ml streptomycin, 0.0008% DEAE-Dextran, 0.045% sodium bicarbonate, and 26 IU/ml recombinant interleukin-2 (Chiron Corp, Emeryville, Calif.). AZT was used as a positive control for the assay. Untreated and uninfected PBM cells were grown in parallel at equivalent cell concentrations as controls. The cell cultures were maintained in a humidified 5% CO2-air at 37° C. for 5 days and supernatants were collected for reverse transcriptase (RT) activity.
Supernatants were centrifuged at 12,000 rpm for 2 hours to pellet the virus. The pellet was solubilized with vortexing in 100 μl virus solubilization buffer (VSB) containing 0.5% Triton X-100, 0.8 M NaCl, 0.5 mM phenylmethylsulfonyl fluoride, 20% glycerol, and 0.05 M Tris, pH 7.8. Ten μL of each sample were added to 75 μL RT reaction mixture (0.06 M Tris, pH 7.8, 0.012 M MgCl2, 0.006 M dithiothreitol, 0.006 mg/ml poly (rA)n, oligo (dT)12-18, 96 μg/ml dATP, and 1 μM of 0.08 mCi/ml ^3H-thymidine triphosphate (Moravek Biochemicals, Brea, Calif.) and incubated at 37° C. for 2 hours. The reaction was stopped by the addition of 100 μL 10% trichloroacetic acid containing 0.05% sodium pyrophosphate. The acid insoluble product was harvested onto filter paper using a Packard Harvester (Meriden, Conn.), and the RT activity was read on a Packard Direct Beta Counter (Meriden, Conn.). The RT results were expressed in counts per minute (CPM) per milliliter.

Series [3] concerns mitochondrial cytochrome C oxidase subunit II (COXII) gene. It is filed as cell-based, human. The following applies: HepG2, 10 μM, 7 days. The text has this: The Q-RT-PCR technology was also used to evaluate potential mitochondrial γ-DNA polymerase inhibition by the compounds of the present invention in relevant human cells. […] Since active nucleoside compounds in the triphosphate form lack a 3′-OH, thereby stopping virus replication by chain termination, there is a concern that these nucleoside analogues are also substrates for the human DNA polymerase γ, resulting in inhibition of mitochondrial DNA replication and subsequently toxic side effects (11, 19). In an attempt to provide direct quantifiable data on mitochondrial DNA levels intracellular, a Q-PCR technology was designed and relative quantification of COXII DNA levels were calculated using the comparative Ct method. […] Also, in agreement with previous observations, no changes in normalized mitochondrial DNA levels were observed after FIAU and D4T treatment (6, 8, 23).
Low passage number HepG2 cells, obtained from American Tissue Culture Collection (ATCC, Manassas, Va.) were seeded at 5,000 cells/well in collagen-coated 96-well plates. Test compounds were added to the media to obtain a final concentration of 10 μM. On culture day 7, cellular nucleic acids were prepared by using commercially available columns (RNeasy 96 kit, Qiagen). […] The mitochondrial cytochrome C oxidase subunit II (COXII) gene and the β-actin or rRNA gene were amplified from 5 μL with a multiplex Q-PCR protocol using the suitable primers and probes for both target and reference (designed using the Primer Express software, Applied Biosystems); • for COXII. • sense primer 5′-[…]-3′ (Sequence 7); • probe 5′-TET-[…]-TAMRA-3′ (Sequence 8); and • antisense probe 5′-[…]-3′ (Sequence 9); • for exon 3 of β-actin (GenBank E01094): • sense primer 5′-[…]-3′ (Sequence 10); • probe 5′-6FAM-[…]-TAMRA-3′ (Sequnece 11); and • antisense probe 5′-[…]-3′ (Sequence 12).
The rRNA gene primers and probes were purchased from Applied Biosystems. Standard curves using 1-log diluted total HepG2 DNA were linear over more than 5 logs. In addition, efficiencies of target (COXII DNA) and reference (β-actin DNA or rRNA) amplification were approximately equal, because the slope of the ΔCt line (Ct β-actin minus Ct mitochondrial) was less than 0.1 (not shown). Since equal amplification efficiencies were obtained for both genes, the comparative cycle threshold (Ct) method was used to investigate potential inhibition of the mitochondrial DNA polymerase γ. The comparative Ct method uses arithmetic formulas in which the amount of target (COXII gene) is normalized to an endogenous reference (β-actin gene or rRNA gene) and is relative to a calibrator (no drug control at day 7). The arithmetic formula for this approach is given by 2-ΔΔCt (User bulletin # 2, Applied Biosystems).
In order to study the consequences of possible inhibitory effects of these compounds on host DNA polymerases, nuclear and rnitochondrial DNA levels were quantified and compared to no-treatment controls. Cells were incubated for 7 days with 10 μM of each compound, followed by total nucleic acid extractions and multiplex Q-PCR of the rRNA gene and the mitochondrial COXII gene. Nucleic acids from cells exposed to the control compounds were also amplified in multiplex for mitDNA and the β-actin gene. The results are presented in Table 4 using the comparative Ct method.

Marks after values point to notes of the source that are not given here.

As for `O=c1[nH]cnc2c1ncn2[C@@H]1S[C@H](CO)C=C1F` [Compound D-28, (+)-9-[(1R,4S)-2,3-dideoxy-2,3-didehydro-2-fluoro-4-thio-β-D-ribofuranosyl]-hypoxanthine], the IC50 (with human PBM cells; in series [1]; in series [2]) was > 100 µM each time. Besides, in the series on HIV-1LAI, the EC50 came out at 43.6 µM.
As for `Nc1nc2c(ncn2[C@@H]2S[C@H](CO)C=C2F)c(=O)[nH]1` [Compound D-32, (−)-9-[(1R,4S)-2,3-dideoxy-2,3-didehydro-2-fluoro-4-thio-β-D-ribofuranosyl]-guanosine], the IC50 (in the series on human PBM cells; in series [1]; in series [2]) was > 100 µM in each case. Besides, the EC50 with HIV-1LAI turned out to be 80.5 µM.
For the molecule `Nc1nc(F)nc2c1ncn2[C@@H]1S[C@H](CO)C=C1F` [Compound D-33, (+)-9-[(1R,4S)-2,3-dideoxy-2,3-didehydro-2-fluoro-4-thio-β-D-ribofuranosyl]-2-fluoroadenosine], the IC50 was found to be 1.5 µM in the series with human PBM cells, 1.1 µM in series [1] and 7.6 µM in series [2]. Also, the EC50 in the series on HIV-1LAI came out at 1.2 µM.
For the molecule `Cc1cn([C@H]2S[C@@H](CO)C=C2F)c(=O)[nH]c1=O` [Compound L-19, (+)-1-[(1S,4R)-2,3-dideoxy-2,3-didehydro-2-fluoro-4-thio-β-L-ribofuranosyl]-thymine], the IC50 (in the series with human PBM cells; in series [1]; in series [2]) was > 100 µM in each case. Further, in the series with HIV-1LAI, the EC50 was > 100 µM.
With `O=c1ccn([C@H]2S[C@@H](CO)C=C2F)c(=O)[nH]1` [Compound L-20, (+)-1-[(1S,4R)-2,3-dideoxy-2,3-didehydro-2-fluoro-4-thio-β-L-ribofuranosyl]-uracil], the concentration for half-maximal inhibition (IC50) (in the series on human PBM cells; in series [1]; in series [2]) was > 100 µM each time. In addition, in the series with HIV-1LAI, the EC50 was > 100 µM.
Turning to `Nc1ncnc2c1ncn2[C@H]1S[C@@H](CO)C=C1F` [Compound L-27, (−)-9-[(1S,4R)-2,3-dideoxy-2,3-didehydro-2-fluoro-4-thio-β-L-ribofuranosyl]adenine], the IC50 (with human PBM cells; in series [1]; in series [2]) was > 100 µM in each case. Moreover, the EC50 in the series on HIV-1LAI worked out at 1.7 µM.
`O=c1[nH]cnc2c1ncn2[C@H]1S[C@@H](CO)C=C1F` [Compound L-28, (−)-9-[(1S,4R)-2,3-dideoxy-2,3-didehydro-2-fluoro-4-thio-β-L-ribofuranosyl]-hypoxanthine]: the IC50 (in the series on human PBM cells; in series [1]; in series [2]) was > 100 µM each time. Further, the EC50 in the series on HIV-1LAI amounted to 15.5 µM.
Take `Nc1nc2c(ncn2[C@H]2S[C@@H](CO)C=C2F)c(=O)[nH]1` [Compound L-32, (+)-9-[(1S,4R)-2,3-dideoxy-2,3-didehydro-2-fluoro-4-thio-β-L-ribofuranosyl]-guanosine]: the results for the IC50 (with human PBM cells; in series [1]; in series [2]) were 13 µM, 10.4 µM and 66.1 µM, respectively.
`Cc1cn([C@H]2C=C[C@@H](CO)O2)c(=O)[nH]c1=O` [D-D4T, β-D-2′,3′-didehydro-3′-deoxythymidine]: in series [3] (COXII DNA normalized to β-actin DNA, 2-ΔΔCt), the “COXIINβ-actin DNA (range) relative to control” value is 0.85 (0.79-0.88). Besides, in series [3], the “Average ΔCt ± SD COXII DNA” value came to 0.29 ± 0.01; the “Average ΔΔCt ± SD COXII-β-actin” value worked out at 0.23 ± 0.04; the “effect on (normalized) mitochondrial COXII DNA levels, in words” value was “no changes”.
Turning to `Nc1ccn([C@H]2CC[C@@H](CO)O2)c(=O)n1` [D-ddC, β-D-2′,3′-dideoxycytidine], the “COXIINrDNA (range) relative to control” value in series [3] (COXII DNA normalized to rDNA, 2-ΔΔCt) is recorded as 0.23 (0.15-0.37). Also, in series [3], the “Average ΔΔCt ± SD COXII-rDNA” value is on record as 2.09 ± 0.65^d; the “Average ΔΔCt ± SD COXII-β-actin” value was 2.9 ± 0.23^d; the “effect on (normalized) mitochondrial COXII DNA levels, in words” value is reported as “reduce rnitochondrial COXII DNA levels”.
With “(−)-1-[(1S,4R)-2,3-dideoxy-2,3-didehydro-2-fluoro-4-thio-β-D-ribofuranosyl]-thymine [Compound D-19]”, the IC50 is > 100 µM in the series with human PBM cells, > 100 µM in series [1] and 53 µM in series [2]. Moreover, the EC50 in the series with HIV-1LAI worked out at 92.3 µM.
Regarding “(−)-1-[(1S,4R)-2,3-dideoxy-2,3-didehydro-2-fluoro-4-thio-β-D-ribofuranosyl]-uracil [Compound D-20]”, the IC50 (with human PBM cells; in series [1]; in series [2]) was > 100 µM each time. Further, the EC50 in the series on HIV-1LAI is > 100 µM.

The values are drawn from US6949522B2, “β-2′- or 3′-halonucleosides” (Pharmasset, Inc., priority 2001, dated 2005).
